Residue numbers refer to the chain shown, from its start. Active and inactive are the calls of the source. No cut-off for these calls is given here.
Tests used:
[1] = target: T1, Tyrosine-protein phosphatase non-receptor type 11 (Homo sapiens) (UniProt Q06124); assay: Inhibition of allosterically sensitized mutant form of His6-tagged human SHP2 containing SHP1 and […] SH2 domain at 500 nM at 500 nM using pNPP as substrate incubated for 90 mins by quenched phosphatase activity assay
T1 sequence (whole entry): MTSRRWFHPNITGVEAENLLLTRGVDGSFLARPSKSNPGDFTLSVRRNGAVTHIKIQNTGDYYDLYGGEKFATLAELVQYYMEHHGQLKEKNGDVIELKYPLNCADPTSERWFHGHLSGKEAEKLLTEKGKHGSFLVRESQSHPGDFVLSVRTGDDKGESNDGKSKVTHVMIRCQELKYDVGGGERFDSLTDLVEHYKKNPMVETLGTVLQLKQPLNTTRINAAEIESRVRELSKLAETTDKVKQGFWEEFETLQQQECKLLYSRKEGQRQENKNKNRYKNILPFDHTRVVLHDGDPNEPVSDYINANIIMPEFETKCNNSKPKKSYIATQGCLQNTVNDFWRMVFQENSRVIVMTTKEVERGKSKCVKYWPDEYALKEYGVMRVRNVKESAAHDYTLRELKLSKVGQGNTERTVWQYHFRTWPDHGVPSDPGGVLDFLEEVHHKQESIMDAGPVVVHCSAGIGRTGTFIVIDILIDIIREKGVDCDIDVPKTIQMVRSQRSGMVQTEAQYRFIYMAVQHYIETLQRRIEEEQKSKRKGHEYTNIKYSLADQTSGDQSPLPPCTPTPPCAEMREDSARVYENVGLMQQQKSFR

[2] = target: T1, Tyrosine-protein phosphatase non-receptor type 11 (Homo sapiens); assay: Inhibition of allosterically sensitized mutant form of His6-tagged human SHP2 catalytic domain at 500 nM at 500 nM using pNPP as substrate incubated for 90 mins by quenched phosphatase activity assay
[3] = target: T2, Tyrosine-protein phosphatase non-receptor type 1 (Homo sapiens) (UniProt P18031); assay: Binding affinity to His6-tagged human wild-type PTP1B catalytic domain overexpressed in Escherichia coli crude cell lysate at 6.66 uM incubated for 90 mins by SDS-PAGE and LC-MS/MS method
T2 sequence (whole entry): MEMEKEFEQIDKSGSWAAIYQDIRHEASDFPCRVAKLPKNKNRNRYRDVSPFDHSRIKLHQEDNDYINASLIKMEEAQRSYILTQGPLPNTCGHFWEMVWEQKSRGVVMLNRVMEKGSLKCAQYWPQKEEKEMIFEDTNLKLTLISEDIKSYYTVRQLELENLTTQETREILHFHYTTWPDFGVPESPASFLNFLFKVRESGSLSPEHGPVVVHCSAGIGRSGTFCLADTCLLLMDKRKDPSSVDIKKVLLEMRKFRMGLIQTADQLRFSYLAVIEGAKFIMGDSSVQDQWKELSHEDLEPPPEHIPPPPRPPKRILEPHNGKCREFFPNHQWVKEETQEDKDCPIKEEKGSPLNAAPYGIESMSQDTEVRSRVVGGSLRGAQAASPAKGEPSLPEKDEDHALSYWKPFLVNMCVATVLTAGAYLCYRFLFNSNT

[4] = target: Tyrosine-protein phosphatase non-receptor type 6 (Homo sapiens) (UniProt P29350); assay: Inhibition of allosterically sensitized mutant form of His6-tagged human SHP1 catalytic domain at 500 nM using pNPP as substrate incubated for 90 mins by quenched phosphatase activity assay
Sequence of Tyrosine-protein phosphatase non-receptor type 6 (Homo sapiens) (P29350 whole entry, the tested form may be a part): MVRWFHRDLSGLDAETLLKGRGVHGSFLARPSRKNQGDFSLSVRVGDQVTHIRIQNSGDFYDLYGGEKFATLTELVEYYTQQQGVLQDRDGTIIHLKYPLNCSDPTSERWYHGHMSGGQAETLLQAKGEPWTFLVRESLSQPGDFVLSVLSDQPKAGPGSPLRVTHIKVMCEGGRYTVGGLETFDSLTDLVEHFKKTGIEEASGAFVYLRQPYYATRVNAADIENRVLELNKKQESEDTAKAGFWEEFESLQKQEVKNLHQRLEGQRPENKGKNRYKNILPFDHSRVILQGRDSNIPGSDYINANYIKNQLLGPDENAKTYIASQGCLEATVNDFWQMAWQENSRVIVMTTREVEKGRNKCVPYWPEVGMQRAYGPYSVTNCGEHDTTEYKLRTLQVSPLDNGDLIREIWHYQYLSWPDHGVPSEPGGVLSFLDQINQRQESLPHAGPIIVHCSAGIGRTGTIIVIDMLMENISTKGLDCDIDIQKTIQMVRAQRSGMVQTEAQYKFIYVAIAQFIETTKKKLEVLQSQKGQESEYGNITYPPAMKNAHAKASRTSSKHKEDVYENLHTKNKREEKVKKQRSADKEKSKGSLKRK

[5] = target: T2, Tyrosine-protein phosphatase non-receptor type 1 (Homo sapiens); assay: Inhibition of His6-tagged human wild-type PTP1B catalytic domain overexpressed in Escherichia coli crude cell lysate using pNPP as substrate incubated for 90 mins by quenched phosphatase activity assay
[6] = target: Tyrosine-protein phosphatase non-receptor type 13 (Homo sapiens) (UniProt Q12923); assay: Inhibition of allosterically sensitized mutant form of His6-tagged human FAP1 catalytic domain at 500 nM using pNPP as substrate incubated for 90 mins by quenched phosphatase activity assay
Sequence of Tyrosine-protein phosphatase non-receptor type 13 (Homo sapiens) (Q12923 whole entry, the tested form may be a part): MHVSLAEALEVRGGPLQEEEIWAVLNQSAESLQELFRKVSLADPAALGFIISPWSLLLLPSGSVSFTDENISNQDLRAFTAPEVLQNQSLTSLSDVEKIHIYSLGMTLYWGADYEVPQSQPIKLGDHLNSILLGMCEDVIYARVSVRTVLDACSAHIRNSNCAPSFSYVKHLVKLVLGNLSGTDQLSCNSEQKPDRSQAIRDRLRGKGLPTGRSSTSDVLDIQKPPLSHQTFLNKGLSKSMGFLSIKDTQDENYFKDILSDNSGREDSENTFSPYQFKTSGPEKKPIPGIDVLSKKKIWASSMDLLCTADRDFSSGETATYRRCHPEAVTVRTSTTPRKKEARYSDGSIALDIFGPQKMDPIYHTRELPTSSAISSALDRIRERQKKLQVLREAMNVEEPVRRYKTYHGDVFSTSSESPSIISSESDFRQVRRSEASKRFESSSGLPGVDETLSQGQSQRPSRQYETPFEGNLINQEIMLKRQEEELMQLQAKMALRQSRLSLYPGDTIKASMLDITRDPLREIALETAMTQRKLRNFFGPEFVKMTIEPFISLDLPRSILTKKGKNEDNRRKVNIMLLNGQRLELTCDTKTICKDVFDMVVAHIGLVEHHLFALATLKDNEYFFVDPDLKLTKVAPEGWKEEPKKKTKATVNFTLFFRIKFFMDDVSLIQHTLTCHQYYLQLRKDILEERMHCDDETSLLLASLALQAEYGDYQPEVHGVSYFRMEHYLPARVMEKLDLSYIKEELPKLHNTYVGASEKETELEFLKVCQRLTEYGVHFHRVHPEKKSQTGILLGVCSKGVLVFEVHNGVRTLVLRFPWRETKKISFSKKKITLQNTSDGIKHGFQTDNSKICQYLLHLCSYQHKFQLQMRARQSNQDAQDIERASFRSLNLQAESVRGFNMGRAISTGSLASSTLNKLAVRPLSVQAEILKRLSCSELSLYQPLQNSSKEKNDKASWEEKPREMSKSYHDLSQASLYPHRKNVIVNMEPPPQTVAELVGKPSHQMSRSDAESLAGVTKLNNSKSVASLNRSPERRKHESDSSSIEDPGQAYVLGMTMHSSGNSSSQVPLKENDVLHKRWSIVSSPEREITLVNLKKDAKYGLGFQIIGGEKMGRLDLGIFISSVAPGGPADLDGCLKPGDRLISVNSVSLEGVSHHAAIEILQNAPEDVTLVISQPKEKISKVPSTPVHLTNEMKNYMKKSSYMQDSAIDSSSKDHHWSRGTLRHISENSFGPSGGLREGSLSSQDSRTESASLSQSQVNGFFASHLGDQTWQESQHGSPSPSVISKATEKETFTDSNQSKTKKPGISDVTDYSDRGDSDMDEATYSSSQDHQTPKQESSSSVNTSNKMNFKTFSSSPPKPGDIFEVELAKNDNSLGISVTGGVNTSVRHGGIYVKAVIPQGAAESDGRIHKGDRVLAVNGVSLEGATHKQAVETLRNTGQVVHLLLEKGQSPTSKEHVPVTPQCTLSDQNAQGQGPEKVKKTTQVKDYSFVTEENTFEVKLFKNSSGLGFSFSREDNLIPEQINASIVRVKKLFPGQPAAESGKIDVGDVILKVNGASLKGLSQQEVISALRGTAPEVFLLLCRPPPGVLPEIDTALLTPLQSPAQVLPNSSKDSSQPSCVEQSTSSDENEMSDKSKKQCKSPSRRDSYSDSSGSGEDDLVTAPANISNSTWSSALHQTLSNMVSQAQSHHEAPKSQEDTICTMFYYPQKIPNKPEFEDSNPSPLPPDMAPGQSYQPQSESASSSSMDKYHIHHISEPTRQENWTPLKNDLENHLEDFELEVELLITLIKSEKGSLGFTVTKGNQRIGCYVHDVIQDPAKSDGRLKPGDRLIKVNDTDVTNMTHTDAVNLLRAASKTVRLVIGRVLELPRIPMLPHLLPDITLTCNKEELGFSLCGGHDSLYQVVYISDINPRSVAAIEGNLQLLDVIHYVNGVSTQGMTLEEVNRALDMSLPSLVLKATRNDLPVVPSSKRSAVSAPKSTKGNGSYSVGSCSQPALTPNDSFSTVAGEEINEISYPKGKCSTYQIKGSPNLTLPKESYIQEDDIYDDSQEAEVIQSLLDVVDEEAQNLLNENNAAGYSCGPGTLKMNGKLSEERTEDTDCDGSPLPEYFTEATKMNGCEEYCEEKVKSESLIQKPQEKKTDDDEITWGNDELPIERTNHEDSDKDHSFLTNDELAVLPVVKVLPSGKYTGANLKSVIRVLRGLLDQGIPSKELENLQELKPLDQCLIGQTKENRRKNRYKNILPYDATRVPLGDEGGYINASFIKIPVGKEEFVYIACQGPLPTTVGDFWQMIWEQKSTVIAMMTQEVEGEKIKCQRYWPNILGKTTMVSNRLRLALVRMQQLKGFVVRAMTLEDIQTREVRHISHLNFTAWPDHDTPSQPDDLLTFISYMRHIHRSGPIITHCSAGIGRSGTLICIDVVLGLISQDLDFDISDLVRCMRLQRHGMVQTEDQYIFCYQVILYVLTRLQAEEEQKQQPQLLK

[7] = test system: T3, Tyrosine-protein phosphatase non-receptor type 7 (Homo sapiens), P35236 [P171C,V205C]; assay: Inhibition of allosterically sensitized mutant form of His6-tagged human HePTP catalytic domain at 500 nM using pNPP as substrate incubated for 90 mins by quenched phosphatase activity assay
T3 sequence (whole entry): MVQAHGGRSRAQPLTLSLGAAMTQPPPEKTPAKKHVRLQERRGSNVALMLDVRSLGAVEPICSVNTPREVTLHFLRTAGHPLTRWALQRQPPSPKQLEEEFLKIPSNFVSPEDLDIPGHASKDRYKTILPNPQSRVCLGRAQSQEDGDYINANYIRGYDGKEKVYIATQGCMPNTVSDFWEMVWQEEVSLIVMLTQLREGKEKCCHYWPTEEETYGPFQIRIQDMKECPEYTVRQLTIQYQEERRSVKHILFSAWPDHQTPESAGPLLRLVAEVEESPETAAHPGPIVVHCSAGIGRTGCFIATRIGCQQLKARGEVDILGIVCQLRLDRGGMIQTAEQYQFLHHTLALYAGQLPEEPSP

[8] = test system: T4, Tyrosine-protein phosphatase non-receptor type 1 (Homo sapiens), P18031 [P87C,A122C]; assay: Inhibition of allosterically sensitized His6-tagged human PTP1B catalytic domain P87C/A122C mutant at 250 nM using pNPP as substrate incubated for 90 mins by quenched phosphatase activity assay
T4 sequence (whole entry): T2 sequence (whole entry) with P87C, A122C

Homo sapiens = organism: Homo sapiens; assay: Inhibition of His6-tagged human wild-type PTP catalytic domain at 500 nM using pNPP as substrate incubated for 90 mins by quenched phosphatase activity assay
[9] = test system: Tyrosine-protein phosphatase non-receptor type 7 (Homo sapiens), P35236 [UNDEFINED MUTATION]; assay: Inhibition of Inhibition of allosterically sensitized mutant form of His6-tagged […] human HePTP catalytic domain overexpressed in Escherichia coli BL21(DE3) cells at 25 uM using pNPP as substrate incubated for 90 mins by quenched phosphatase activity assay
Sequence of Tyrosine-protein phosphatase non-receptor type 7 (Homo sapiens), P35236 [UNDEFINED MUTATION] (P35236 whole entry, looked up, stated change not applied, the tested form may be a part): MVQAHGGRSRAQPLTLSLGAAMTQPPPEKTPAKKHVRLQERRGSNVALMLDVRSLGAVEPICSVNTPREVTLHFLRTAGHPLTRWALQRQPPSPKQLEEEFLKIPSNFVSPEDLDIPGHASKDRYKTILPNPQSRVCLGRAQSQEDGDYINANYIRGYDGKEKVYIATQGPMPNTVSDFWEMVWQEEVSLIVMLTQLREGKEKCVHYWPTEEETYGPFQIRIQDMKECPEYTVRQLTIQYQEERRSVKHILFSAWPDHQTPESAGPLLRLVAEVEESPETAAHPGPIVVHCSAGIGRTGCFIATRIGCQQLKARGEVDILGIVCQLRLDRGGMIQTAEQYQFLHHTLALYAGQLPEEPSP

| SMILES | inhibition [1] | inhibition [2] | Activity [3] | inhibition [4] | inhibition [5] | inhibition [6] | inhibition [7] | inhibition [8] | inhibition (Homo sapiens) | inhibition [9] |
| --- | --- | --- | --- | --- | --- | --- | --- | --- | --- | --- |
| CC1(C)C(/C=C/C=C2/N(CCCCS(=O)(=O)O)c3ccc([As]4SCCS4)cc3C2(C)C)=[N+](CCCCS(=O)(=O)O)c2ccc([As]3SCCS3)cc21 | inactive | inactive | inactive | Active | inactive | Active | inactive | 70% | Active |  |
| O=C(O)c1ccccc1-c1c2ccc(=O)c([As]3SCCS3)c-2oc2c([As]3SCCS3)c(O)ccc12 | Active | Active |  | Active |  | Active | Active | Active | Active | Active |
